Results from patent publication US6756359B2, “C12 modified erythromycin macrolides and ketolides having antibacterial activity” (Chiron Corporation, priority 2001, dated 2004).
Values after ≈ are worked out from the molar mass of the structure shown.

What was measured:
Assay in all cases: Antibacterial activity in vitro, MIC by broth microdilution
H. influenzae Hain_49247 = format: cell-based, Haemophilus influenzae; settings: Table 5, Strain ID M: H. influenzae Hain_49247; unit assumed
Description: (§1) Representative compounds of the present invention were assayed in vitro for antibacterial activity against the bacterial isolates listed in Table 1 as follows:
(§2) The bacterial isolates listed in Table 1 were cultivated from −70° C. frozen stocks by two consecutive overnight passages (P1, P2) at 35° C. on 5% blood agar (Remel, Lenexa, Kans.). Chocolate agar (Remel) is used for Haemophilus influenzae. H. influenzae and Streptococcus pneumoniae are incubated in 5-10% CO2.
(§3) To determine the amount of solvent to be used to give the desired final concentration, the formula “weight obtained in mg/final concentration in mg/mL” will be used. It will give the amount of solvent in mL needed to be added to give the desired concentration. For example, if 2.5 mg/mL is the desired concentration and the weight of compound is 13.7 mg, then the amount of solvent to be added is 3.94 mL (13.7 mg/2.5 mg/mL=3.94 mLs). Methanol is used as the solvent to dissolve the test compounds. Further dilution of stock is done in sterile, deioinzed water. Drug stocks are kept frozen at −70° C., protected from light.
(§4) MICs are determined by the broth microdilution method in accordance with the NCCLS guidelines. In brief, organism suspensions are adjusted to a 0.5 McFarland standard to yield a final inoculum between 3×10^5 and 7×10^5 CFU/mL. Drug dilutions and inocula are made in sterile, cation adjusted Mueller-Hinton Broth (CAMHB) (Remel) for all but S. pneumoniae [CAMHB with 2-5% lysed horse blood (Remel)] and H. influenzae [Haemophilus Test Medium (Remel)]. An inoculum volume of 100 μl is added to wells containing 100 μl of broth with 2-fold serial dilutions of drug. All inoculated microdilution trays are incubated in ambient air at 35° C. for 18-24 hours, except for S. pneumoniae, and H. influenzae (both at 5-10% CO2).
(§5) Following appropriate incubation, the MIC is determined and the MIC is defined as the lowest concentration of the drug that prevented visible growth.

[1] = test system: S. epidermidis Step_f50654 Pen S; format: cell-based; settings: Table 5, Strain ID C: S. epidermidis Step_f50654; unit assumed
Description: as §1, §2, §3, §4, §5

S. aureus Stau_29213 = format: cell-based; settings: Table 5, Strain ID A: S. aureus Stau_29213; unit assumed
Description: as §1, §2, §3, §4, §5

[2] = test system: S. epidermidis Step_14990; format: cell-based; settings: Table 5, Strain ID B: S. epidermidis Step_14990; unit assumed
Description: as §1, §2, §3, §4, §5

E. faecalis Enfa_29212 = format: cell-based; settings: Table 5, Strain ID D: E. faecalis Enfa_29212; unit assumed
Description: as §1, §2, §3, §4, §5

S. pyogenes Stpy_8668 = format: cell-based; settings: Table 5, Strain ID E: S. pyogenes Stpy_8668
Description: as §1, §2, §3, §4, §5

S. pneumoniae Stpn_49619 = format: cell-based, Streptococcus pneumoniae; settings: Table 5, Strain ID F: S. pneumoniae Stpn_49619
Description: as §1, §2, §3, §4, §5

[3] = test system: S. pneumoniae Stpn_Mef S 3427; format: cell-based, Streptococcus pneumoniae; settings: Table 5, Strain ID L: S. pneumoniae Stpn_Mef S 3427; unit assumed
Description: as §1, §2, §3, §4, §5

[4] = test system: S. pneumoniae Stpn_Mef 5654; format: cell-based, Streptococcus pneumoniae; settings: Table 5, Strain ID K: S. pneumoniae Stpn_Mef 5654; unit assumed
Description: as §1, §2, §3, §4, §5

[5] = test system: S. pneumoniae Stpn_Erm 6849; format: cell-based, Streptococcus pneumoniae; settings: Table 5, Strain ID I: S. pneumoniae Stpn_Erm 6849; unit assumed
Description: as §1, §2, §3, §4, §5

[6] = test system: S. pneumoniae Stpn_Erm S 4297; format: cell-based, Streptococcus pneumoniae; settings: Table 5, Strain ID J: S. pneumoniae Stpn_Erm S 4297
Description: as §1, §2, §3, §4, §5

[7] = test system: S. pneumoniae Stpn_297-749 Pen R; format: cell-based, Streptococcus pneumoniae; settings: Table 5, Strain ID G: S. pneumoniae Stpn_297-749
Description: as §1, §2, §3, §4, §5

[8] = test system: S. pneumoniae Stpn_280-962 Pen S; format: cell-based, Streptococcus pneumoniae; settings: Table 5, Strain ID H: S. pneumoniae Stpn_280-962
Description: as §1, §2, §3, §4, §5

Row | MIC (H. influenzae Hain_49247) [mg/L] | MIC [1] [mg/L] | MIC (S. aureus Stau_29213) [mg/L] | MIC [2] [mg/L] | MIC (E. faecalis Enfa_29212) [mg/L] | MIC (S. pyogenes Stpy_8668) | MIC (S. pneumoniae Stpn_49619) | MIC [3] [mg/L] | MIC [4] [mg/L] | MIC [5] [mg/L] | MIC ([6]; unit assumed) [mg/L] | MIC [7] | MIC [8] | MIC [6] | SMILES
1 | 6.25 (≈ 7.44 µM) | 0.4 (≈ 0.476 µM) | 0.4 (≈ 0.476 µM) | 0.2 (≈ 0.238 µM) | 0.2 (≈ 0.238 µM) | ≦0.05 | ≦0.05 | 0.2 (≈ 0.238 µM) | 0.78 (≈ 0.928 µM) | 1.56 (≈ 1.86 µM) | 0.2 (≈ 0.238 µM) | ≦0.05 | ≦0.05 | – | CC[C@H]1OC(=O)[C@H](C)C(=O)[C@H](C)[C@@H](OC2O[C@H](C)C[C@H](N(C)C)[C@H]2O)[C@@](C)(OC)C[C@@H](C)C(=O)[C@H](C)[C@H]2N(CCCCn3cnc(-c4ccc(C)nc4)c3)C(=O)O[C@]12CC (stereo partly drawn) [Example 29, (3aS,4R,7R,9R,10R,11S,13R,15R,15aR)-3a,4-diethyl-11-methoxy-7,9,11,13,15-pentamethyl-1-{4-[4-(6-methylpyridin-3-yl)-1H-imidazol-1-yl]butyl}-2,6,8,14-tetraoxotetradecahydro-2H-oxacyclotetradecino[4,3-d][1,3]oxazol-10-yl 3,4,6-trideoxy-3-(dimethylamino)-D-xylo-hexopyranoside]
2 | 6.25 (≈ 7.28 µM) | 0.4 (≈ 0.466 µM) | 0.2 (≈ 0.233 µM) | 0.2 (≈ 0.233 µM) | 0.2 (≈ 0.233 µM) | ≦0.05 | ≦0.05 | 0.1 (≈ 0.117 µM) | 0.78 (≈ 0.909 µM) | 0.4 (≈ 0.466 µM) | 0.1 (≈ 0.117 µM) | ≦0.05 | ≦0.05 | – | CC[C@H]1OC(=O)[C@@](C)(F)C(=O)[C@H](C)[C@@H](OC2O[C@H](C)C[C@H](N(C)C)[C@H]2O)[C@@](C)(OC)C[C@@H](C)C(=O)[C@H](C)[C@H]2N(CCCCn3cnc(-c4ccc(C)nc4)c3)C(=O)O[C@]12CC (stereo partly drawn) [Example 30, (3aS,4R,7S,9R,10R,11S,13R,15R,15aR)-3a,4-diethyl-7-fluoro-11-methoxy-7,9,11,13,15-pentamethyl-1-{4-[4-(6-methylpyridin-3-yl)-1H-imidazol-1-yl]butyl}-2,6,8,14-tetraoxotetradecahydro-2H-oxacyclotetradecino[4,3-d][1,3]oxazol-10-yl 3,4,6-trideoxy-3-(dimethylamino)-D-xylo-hexopyranoside]
3 | 6.25 (≈ 7.32 µM) | 0.4 (≈ 0.468 µM) | 0.2 (≈ 0.234 µM) | 0.4 (≈ 0.468 µM) | 0.2 (≈ 0.234 µM) | ≦0.05 | ≦0.05 | 0.2 (≈ 0.234 µM) | 0.78 (≈ 0.913 µM) | 0.4 (≈ 0.468 µM) | 0.2 (≈ 0.234 µM) | ≦0.05 | ≦0.05 | – | CC[C@H]1OC(=O)[C@H](C)C(=O)[C@H](C)[C@@H](OC2O[C@H](C)C[C@H](N(C)C)[C@H]2O)[C@@](C)(OC)C[C@@H](C)C(=O)[C@H](C)[C@H]2N(CCCC(C)(C)n3cnc(-c4cccnc4)c3)C(=O)O[C@]12CC (stereo partly drawn) [Example 31, (3aS,4R,7R,9R,10R,11S,13R,15R,15aR)-3a,4-diethyl-11-methoxy-7,9,11,13,15-pentamethyl-1-[4-methyl-4-(4-pyridin-3-yl-1H-imidazol-1-yl)pentyl]-2,6,8,14-tetraoxotetradecahydro-2H-oxacyclotetradecino[4,3-d][1,3]oxazol-10-yl 3,4,6-trideoxy-3-(dimethylamino)-D-xylo-hexopyranoside]
4 | 6.25 (≈ 7.17 µM) | 0.4 (≈ 0.459 µM) | 0.2 (≈ 0.229 µM) | 0.4 (≈ 0.459 µM) | 0.02 (≈ 0.0229 µM) | ≦0.05 | ≦0.05 | 0.2 (≈ 0.229 µM) | 0.78 (≈ 0.894 µM) | 0.2 (≈ 0.229 µM) | – | ≦0.05 | ≦0.05 | ≦0.05 | CC[C@H]1OC(=O)[C@@](C)(F)C(=O)[C@H](C)[C@@H](OC2O[C@H](C)C[C@H](N(C)C)[C@H]2O)[C@@](C)(OC)C[C@@H](C)C(=O)[C@H](C)[C@H]2N(CCCC(C)(C)n3cnc(-c4cccnc4)c3)C(=O)O[C@]12CC (stereo partly drawn) [Example 32, (3aS,4R,7S,9R,10R,11S,13R,15R,15aR)-3a,4-diethyl-7-fluoro-11-methoxy-7,9,11,13,15-pentamethyl-1-[4-methyl-4-(4-pyridin-3-yl-1H-imidazol-1-yl)pentyl]-2,6,8,14-tetraoxotetradecahydro-2H-oxacyclotetradecino [4,3-d][1,3]oxazol-10-yl 3,4,6-trideoxy-3-(dimethylamino)-D-xylo-hexopyranoside]
